Reference: article PMC6628320, “Poly-Saturated Dolichols from Filamentous Fungi Modulate Activity of Dolichol-Dependent Glycosyltransferase and Physical Properties of Membranes” (International Journal of Molecular Sciences, 2019)

Experiments:
Assay in all cases: radiometric GDP[…]mannose transfer, membrane fraction, organic-phase counting
Format in all cases: biochemical
Conditions in all cases: GDP[14C]mannose co-substrate, 10 mM MgCl2, 0.1% Nonidet P-40, pH 7.4, 30 °C, 5 min; 50 µL assay (amount, not concentration)
[1] = target: T1, ScDPMS (DPMS from S. cerevisiae) (Saccharomyces cerevisiae, UniProt P14020)
T1 construct: gene DPM1; native enzyme in yeast membrane fraction, not purified; Type I, exclusively Dpm1 subunit
T1 sequence (P14020 2-267): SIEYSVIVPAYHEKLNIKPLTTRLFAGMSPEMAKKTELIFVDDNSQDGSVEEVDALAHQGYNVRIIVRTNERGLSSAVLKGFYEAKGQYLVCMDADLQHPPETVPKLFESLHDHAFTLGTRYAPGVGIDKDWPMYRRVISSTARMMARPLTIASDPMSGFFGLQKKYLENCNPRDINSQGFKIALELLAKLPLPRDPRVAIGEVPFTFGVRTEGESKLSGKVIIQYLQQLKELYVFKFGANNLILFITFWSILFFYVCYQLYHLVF

[2] = target: T2, TrDPMS-1,3 (T. reesei Dpm1,3 expressed in S. cerevisiae) (Trichoderma reesei, UniProt G0R8U7)
T2 construct: dpm1Tr (p415 GPD LEU) and dpm3Tr (pESC-URA) in S. cerevisiae dpm1dr∆ mutant; yeast membrane fraction; Dpm2 omitted; with Dolichol-phosphate mannosyltransferase subunit 3
T2 sequence (G0R8U7 entry or part of it): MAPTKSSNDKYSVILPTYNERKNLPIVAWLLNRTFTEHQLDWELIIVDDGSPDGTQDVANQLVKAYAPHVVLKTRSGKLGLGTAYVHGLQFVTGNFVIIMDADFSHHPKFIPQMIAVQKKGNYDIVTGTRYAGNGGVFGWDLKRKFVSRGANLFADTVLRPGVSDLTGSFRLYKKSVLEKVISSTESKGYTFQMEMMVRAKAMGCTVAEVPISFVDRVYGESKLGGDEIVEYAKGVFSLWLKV
T2 sequence (C6KF57 entry or part of it, further chain): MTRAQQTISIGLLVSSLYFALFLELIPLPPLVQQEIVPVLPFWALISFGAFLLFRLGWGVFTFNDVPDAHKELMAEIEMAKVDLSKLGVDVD

[3] = target: T3, TrDPMS (DPMS from T. reesei) (Trichoderma reesei, UniProt G0R8U7)
T3 construct: gene dpm1; native Dpm1/Dpm2/Dpm3 complex in the membrane fraction of T. reesei, not purified; with Dolichol phosphate-mannose biosynthesis regulatory protein; Dolichol-phosphate mannosyltransferase subunit 3
T3 sequence (G0R8U7 1-243): as the sequence (G0R8U7 entry or part of it) above
T3 sequence (C6KF57 1-92 partner): as the sequence (C6KF57 entry or part of it, further chain) above
T3 sequence (C6KF56 1-80 partner): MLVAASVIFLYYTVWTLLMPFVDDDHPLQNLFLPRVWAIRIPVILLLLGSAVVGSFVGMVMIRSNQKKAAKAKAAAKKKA

S. cerevisiae / Km [1]: 730 ng
S. cerevisiae / Km [2]: 730 ng
T. reesei / Km [3]: 3500 ng
SMILES: CC(C)=CCC/C(C)=C/CC/C(C)=C/CC/C(C)=C\CC/C(C)=C\CC/C(C)=C\CC/C(C)=C\CC/C(C)=C\CC/C(C)=C\CC/C(C)=C\CCC(C)CCOP(=O)(O)O (stereo not drawn) [Dol-P11]
